Reference: publication PMC4411898, “Impact of kinesin Eg5 inhibition by 3,4-dihydropyrimidin-2(1H)-one derivatives on various breast cancer cell features” (BMC Cancer, 2015)
pIC50: −log10 of the molar value.

Experiments:
MCF-7 cells [1] = assay: MTT cell viability assay, MCF-7; format: cell-based, human; details: for pIC50: 72 h treatment, MTT, read-out: IC50 MCF-7; for Effect on cell viability, MCF-7: all concentrations tested 100 μM – 1.00 mM, 72 h
Experimental: Absorbance readings were measured by a spectrophotometer. Cell viability was normalized to control (vehicle only).

[2] = system: Fibroblasts (primary culture from healthy human dental pulp); details: fibroblasts, 72 h treatment, MTT
Experimental: MCF-7 cell line and primary culture of connective tissue cells were provided by the Laboratory of Morphology, University of Brasília (Brasília, BR). MDA-MB-231 cells were purchased from Rio de Janeiro Cell Bank (RJCB - Rio de Janeiro, BR). Cell line characterization and authentication was conducted by RJCB using short tandem repeat profiling. Primary culture cells were taken from healthy human dental pulp predominantly consisting of fibroblasts and were used as normal control cells. MCF-7 cells and fibroblasts were grown in complete DMEM and maintained at 37°C with 5% CO2. MDA-MB-231 cells were grown in Leibovitz L15 medium at 37°C without CO2. Culture media were supplemented with 10% fetal bovine serum and 25 μg/mL of gentamicin.
Cytotoxicity was determined using 3-(4,5-dimethylthiazol-2-yl)-2,5-diphenylterazolium bromide (MTT) according to the manufacturer’s instructions. Absorbance readings were measured by a spectrophotometer. Cell viability was normalized to control (vehicle only).

MCF-7 cells [3] = assay: α-tubulin immunostaining, spindle formation; format: cell-based, human; details: for Monoastral Spindle (%) 24 h / Bipolar Spindle (%) 24 h / Mitotic spindle / microtubule organization (α-tubulin immunostaining): MCF-7, 24 h; for Monoastral Spindle (%) 24 h / Bipolar Spindle (%) 24 h / Bipolar Spindle (%) 48 h / Monoastral Spindle (%) 48 h: n = 300 dividing cells; for Monoastral Spindle (%) 24 h / Mitotic spindle / microtubule organization (α-tubulin immunostaining): 4m 1.0 mM, 4bt 0.8 mM, 4p 0.4 mM, 4bc 1.0 mM, 4x 0.8 mM; for Monoastral Spindle (%) 24 h: monastrol 0.1 mM; for Bipolar Spindle (%) 24 h / Bipolar Spindle (%) 48 h / Monoastral Spindle (%) 48 h: concentrations as E14; for Bipolar Spindle (%) 48 h / Monoastral Spindle (%) 48 h: MCF-7, 48 h
Experimental: Aliquots of 7 × 10^4 MCF-7 cells were seeded onto 12 mm round glass coverslips placed in the base of each well of a 24-well plate. After adhesion, cells were treated for 24 and 48 h with the pre-selected compounds at their maximum non-cytotoxic concentrations to normal cells or incubated with culture medium only for the same duration (negative control). Cells were washed with PBS, fixed with 3.7% formaldehyde, permeabilized with 0.1% Triton X-100 and blocked in PBS supplemented with 1% skimmed milk, 2.5% bovine serum albumin (BSA) and 8% fetal bovine serum (FBS) at room temperature. Cells were incubated overnight with mouse anti-α-tubulin antibody (1:500) at 4°C, followed by incubation with a secondary antibody: Alexa Fluor 488 rabbit anti-mouse IgG (1:400), for 1 hour at 37°C. Nuclei were stained with 300 nM DAPI. The coverslips were mounted with ProLong Gold Antifade and specimens observed under a laser scanning confocal microscope.
Table S1. Quantification of monopolar spindles occurred as a result of treatment with DHPM derivatives. MCF-7 control cells or cells treated for 24 or 48 h with 4m (1 mM), […]
antibody. The percentage of dividing cells showing presence of monoastral and bipolar spinles formation determined (n = 300).
Experimental Group Monoastral Spindle (%) Bipolar Spindle (%)

MCF-7 cells [4] = assay: Morphological alterations under inverted light microscope, MCF-7; format: cell-based, human; details: 72 h, maximum non-cytotoxic concentration to normal cells
Experimental: Figure 2 DHPM derivatives cause severe morphological alterations on breast cancer cells. MCF-7 and MDA-MB-231 cells were treated with the maximum non-cytotoxic concentration to normal cells for 72 h and morphological alterations analyzed under an inverted light microscope. Cells with elongated morphology, adherent to the surface and normal size are shown by arrows. Cells with size reduction, absence of focal adhesion points, rounded morphology and detached from the surface where they had been seeded are shown by arrowheads.

MCF-7 cells [5] = assay: CFSE proliferation assay, MCF-7; format: cell-based, human; details: 72 h, IC50 concentration of each compound
Experimental: (§1) For proliferation assays, cells were treated with IC50 concentrations of each compound. Adherent and floating cells were harvested at the same tube and pelleted by centrifugation at 300 g for 5 minutes and stained. Data acquisition of these two fractions put together was performed on a FACSCalibur flow cytometer using CellQuest software and analysed using the FloJo Software. […] After adhesion, cells were treated with DHPMs or maintained in culture medium only (control) for 72 h. The percentage of proliferative cells was calculated based on the CFSE fluorescence profile analysis of the tested samples compared to that of the fixed undivided control cells (treated with 10 μM of colchicine) using the FlowJo software.

MDA-MB-231 cells = assay: CFSE proliferation assay, MDA-MB-231; format: cell-based, human; details: 72 h, IC50 concentration of each compound
Experimental: as §1

HUVEC cells = assay: HUVEC tube formation assay; format: cell-based, human; details: 11 h; 30 μM, IC50 or 300 μM, mainly 300 μM
Experimental: The anti-angiogenic potential of DHPMs was tested using an in vitro Angiogenesis Assay Kit according to the manufacturer’s instructions. […] These plates were incubated for 11 hours at 37°C, in 5% CO2. Wells were subsequently photographed using an inverted light microscope at 20x magnification and tube formation analyzed. Seven fields per group of 3 independent experiments were quantified by pattern recognition according to manufacturer’s instructions.

MCF-7 cells [6] = assay: DAPI staining and transmission electron microscopy analysis; format: cell-based, human; details: MCF-7, 4p 0.4 mM, 24 h (DAPI) or 48 h (TEM)
Experimental: Aliquots of 8 × 10^5 MCF-7 cells were seeded in 12-well plates and ultra-structural analysis performed on controls or after 48 h of treatment with 4p (0.4 mM). Cells were washed twice with PBS and fixed overnight with glutaraldehyde (2.5%) at 4°C. Cells were subsequently washed with 0.1 M sodium cacodylate buffer (pH 7.2) and post-fixed in 1% osmium tetroxide and 0.8% potassium ferricyanide (10 mM CaCl2 in 0.2 M sodium cacodylate buffer). Samples were washed twice with 0.1 M sodium cacodylate buffer (pH 7.2) and in-block staining was performed for 16 h with 0.5% uranyl acetate at 4°C. Cells were dehydrated in a graded acetone series (50-100%) and embedded in Spurr resin.
Cells were analyzed under a laser scanning confocal microscope. B, MCF-7 cells control or treated with 4p (0.4 mM) for 24 h had their nucleus stained with DAPI (left panels) or were processed and analyzed by Transmission Electron Microscopy after exposure to 4p (0.4 mM) for 48 h (right panels).

SMILES	pIC50 (MCF-7 cells [1])	Effect on cell viability, MCF-7 (MCF-7 cells [1])	Maximum non-cytotoxic concentration to normal cells [2] [mM]	Monoastral Spindle (%) 24 h (MCF-7 cells [3]) [%]	Bipolar Spindle (%) 24 h (MCF-7 cells [3]) [%]	Mitotic spindle / microtubule organization (α-tubulin immunostaining) (MCF-7 cells [3])	Bipolar Spindle (%) 48 h (MCF-7 cells [3]) [%]	Monoastral Spindle (%) 48 h (MCF-7 cells [3]) [%]	Morphological alterations, MCF-7 (MCF-7 cells [4])	Inhibition of cell proliferation, MCF-7 (MCF-7 cells [5])	Inhibition of cell proliferation, MDA-MB-231 (MDA-MB-231 cells)	HUVEC tube formation (pattern recognition / morphology) (HUVEC cells)	Cell phenotype by DAPI staining and TEM (MCF-7 cells [6])
CC(=O)C1=C(C)NC(=O)NC1c1ccccc1[N+](=O)[O-] (stereo not shown) [Compound 4x]	3.56	significant decrease in cell viability	0.8	50.80	49.20	caused monoastral spindle formation	12.01	87.99	no significant alterations	–	–	–	–
CCOC(=O)C1=C(C)NC(=S)NC1c1ccccc1O (stereo not shown) [Compound 4p]	4.06	significant decrease in cell viability	0.4	0	0	disruption of the microtubules	0	0	produced the same results	Approximately 50%	Approximately 50%	more pronounced anti-angiogenic morphological aspect	mitotic catastrophe phenotype
